From patent US7772246B2 (Pfizer Inc., priority 2007, dated 2010) come the findings set out here.

For this experiment, the target named is T1, b-Raf (Homo sapiens, UniProt P15056, V600E).
T1 construct: endogenous in cells; host or cells: A2058 human melanoma cells
T1 sequence (P15056 whole entry V600E): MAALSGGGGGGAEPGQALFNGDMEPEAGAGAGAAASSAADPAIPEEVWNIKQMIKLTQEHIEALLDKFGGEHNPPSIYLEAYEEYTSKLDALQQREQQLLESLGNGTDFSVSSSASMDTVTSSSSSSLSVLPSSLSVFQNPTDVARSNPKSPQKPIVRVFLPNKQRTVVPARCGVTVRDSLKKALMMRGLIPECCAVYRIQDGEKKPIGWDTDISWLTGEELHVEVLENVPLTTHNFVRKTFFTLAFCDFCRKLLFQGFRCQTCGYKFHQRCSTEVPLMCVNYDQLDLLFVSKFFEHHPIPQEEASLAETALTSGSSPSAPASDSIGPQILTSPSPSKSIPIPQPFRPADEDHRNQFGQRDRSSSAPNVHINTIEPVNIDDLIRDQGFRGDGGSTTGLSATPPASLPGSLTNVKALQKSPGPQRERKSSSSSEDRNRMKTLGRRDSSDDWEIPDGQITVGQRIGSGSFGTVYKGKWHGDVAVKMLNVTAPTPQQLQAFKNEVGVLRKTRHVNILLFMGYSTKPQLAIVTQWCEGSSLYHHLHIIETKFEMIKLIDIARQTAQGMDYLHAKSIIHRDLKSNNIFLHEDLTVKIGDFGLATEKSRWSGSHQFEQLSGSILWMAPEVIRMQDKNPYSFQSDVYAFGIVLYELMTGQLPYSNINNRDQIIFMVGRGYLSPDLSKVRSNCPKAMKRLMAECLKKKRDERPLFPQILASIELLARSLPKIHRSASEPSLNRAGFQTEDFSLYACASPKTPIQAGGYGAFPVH
The experiment in a line: Raf cellular assay (phospho-Mek1/2 ELISA in A2058 cells). It counts as cell-based. The following applies: Table 3; human melanoma A2058 cells (b-Raf mutation), Mek1/2 Ser217/221 phosphorylation, 1 hour incubation; read-out: pMEK IC50. In outline: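 A2058 melanoma cells (B-Raf mutant), seeded overnight in 10% FBS DMEM, were exposed to compounds (11-point 1:3 series, duplicate) for 1 h at 37 °C. Lysates were captured on anti-Mek1-coated plates and Mek1/2 Ser217/221 phosphorylation was read by anti-phospho-Mek1/2 ELISA, HRP/TMB, 450 nm.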
Turning to `C[C@H](O)CNc1nccc(-c2cn(CC(F)F)nc2-c2cnc3[nH]cc(C#N)c3c2)n1` [Example B-103, 5-[1-(2,2-difluoroethyl)-4-(2-{[(2S)-2-hydroxypropyl]amino}pyrimidin-4-yl)-1H-pyrazol-3-yl]-1H-pyrrolo[2,3-b]pyridine-3-carbonitrile], the IC50 was found to be 3800 nM.
Consider `C[C@H](O)CNc1nccc(-c2cn(CC(F)F)nc2-c2cnc3c(c2)[C@@H](C)CN3)n1` [Example B-92, (S)-1-(4-(1-(2,2-difluoroethyl)-3-((R)-3-methyl-2,3-dihydro-1H-pyrrolo[2,3-b]pyridin-5-yl)-1H-pyrazol-4-yl)pyrimidin-2-ylamino)propan-2-ol], for which the IC50 came out at 280 nM.
To `CN1CCC(n2cc(-c3ccncn3)c(-c3cnc4[nH]cc(Cl)c4c3)n2)CC1` [Example F-2, 3-chloro-5-[1-(1-methylpiperidin-4-yl)-4-pyrimidin-4-yl-1H-pyrazol-3-yl]-1H-pyrrolo[2,3-b]pyridine] belongs 196 nM; to `CC(C)n1cc(-c2ccnc(N)c2)c(-c2cnc3[nH]ccc3c2)n1` [Example H-2, 4-(1-isopropyl-3-(1H-pyrrolo[2,3-b]pyridin-5-yl)-1H-pyrazol-4-yl)pyridin-2-amine], 1020 nM.
For `Cc1c[nH]c2ncc(-c3nn(C(C)C)cc3-c3ccnc(N)n3)cc12` [Example B-62, 4-[1-isopropyl-3-(3-methyl-1H-pyrrolo[2,3-b]pyridin-5-yl)-1H-pyrazol-4-yl]pyrimidin-2-amine] the value was 48.1 nM.
For the molecule `FC(F)CNc1nccc(-c2cn(CC(F)F)nc2-c2cnc3c(c2)CCN3)n1` [Example B-90, N-(2,2-difluoroethyl)-4-(1-(2,2-difluoroethyl)-3-(2,3-dihydro-1H-pyrrolo[2,3-b]pyridin-5-yl)-1H-pyrazol-4-yl)pyrimidin-2-amine], the IC50 is 43.4 nM.
To `CC(C)n1cc(-c2ccnc(NC[C@H](C)O)n2)c(-c2cnc(N)c(OC(F)F)c2)n1` [Example B-39, (2S)-1-[(4-{3-[6-amino-5-(difluoromethoxy)-pyridin-3-yl]-1-isopropyl-1H-pyrazol-4-yl}pyrimidin-2-yl)amino]propan-2-ol] belongs 87.8 nM.
As to `N#CCCNc1nccc(-c2cn(CC(F)F)nc2-c2cnc3c(c2)CC(=O)N3)n1` [Example B-95, 3-(4-(1-(2,2-difluoroethyl)-3-(2-oxo-2,3-dihydro-1H-pyrrolo[2,3-b]pyridin-5-yl)-1H-pyrazol-4-yl)-pyrimidin-2-ylamino)propanenitrile], the IC50 was 1670 nM.
To `CC(C)n1cc(-c2ccnc(NC[C@H](C)O)n2)c(-c2cnc3[nH]cc(Cl)c3n2)n1` [Example I-2, (2S)-1-({4-[3-(7-chloro-5H-pyrrolo[2,3-b]pyrazin-2-yl)-1-isopropyl-1H-pyrazol-4-yl]pyrimidin-2-yl}amino)propan-2-ol] belongs 20 nM; to `N#CCCNc1nccc(-c2cn(CC(F)F)nc2-c2cnc3[nH]cc(F)c3c2)n1` [Example B-21, 3-({4-[1-(2,2-difluoroethyl)-3-(3-fluoro-1H-pyrrolo[2,3-b]pyridin-5-yl)-1H-pyrazol-4-yl]pyrimidin-2-yl}amino)propanenitrile], 1.95 nM.
Consider `CC(C)(C#N)n1cc(-c2ccnc(N)n2)c(-c2cnc3[nH]cc(Cl)c3c2)n1` [Example G-6, 2-[4-(2-aminopyrimidin-4-yl)-3-(3-chloro-1H-pyrrolo[2,3-b]pyridin-5-yl)-1H-pyrazol-1-yl]-2-methylpropanenitrile], for which the IC50 amounted to 17.3 nM.
To `CC(C)n1cc(-c2ccncn2)c(-c2cnc3[nH]cc(Cl)c3c2)n1` [Example F-1, 3-chloro-5-(1-isopropyl-4-(pyrimidin-4-yl)-1H-pyrazol-3-yl)-1H-pyrrolo[2,3-b]pyridine] belongs 49.9 nM; to `N#CCCNc1nccc(-c2cn([C@@H]3CCOC3)nc2-c2cnc3[nH]ccc3c2)n1` [Example B-75, 3-[(4-{3-(1H-pyrrolo[2,3-b]pyridin-5-yl)-1-[(3R)-tetrahydrofuran-3-yl]-1H-pyrazol-4-yl}pyrimidin-2-yl)amino]propanenitrile], 23.8 nM; to `CC(C)n1cc(-c2ccnc(NCCC#N)n2)c(-c2cnc3c(c2)CCN3)n1` [Example B-20, 3-({4-[3-(2,3-dihydro-1H-pyrrolo[2,3-b]pyridin-5-yl)-1-isopropyl-1H-pyrazol-4-yl]pyrimidin-2-yl}amino)propanenitrile], 6.64 nM.
For `CC(C)n1cc(-c2ccnc3[nH]ccc23)c(-c2cnc3[nH]ccc3c2)n1` [Example H-3, 4-(1-isopropyl-3-(1H-pyrrolo[2,3-b]pyridin-5-yl)-1H-pyrazol-4-yl)-1H-pyrrolo[2,3-b]pyridine] the value was 427 nM.
To `CC(C)n1cc(-c2ccnc3[nH]ccc23)c(-c2cnc3[nH]cc(Cl)c3c2)n1` [Example H-4, 3-chloro-5-(1-isopropyl-4-(1H-pyrrolo[2,3-b]pyridin-4-yl)-1H-pyrazol-3-yl)-1H-pyrrolo[2,3-b]pyridine] belongs 66.3 nM.
Regarding `C[C@H](O)CNc1nccc(-c2cn([C@H]3C[C@H](F)C3)nc2-c2cnc3[nH]cc(Cl)c3c2)n1` [Example B-86, (S)-1-(4-(3-(3-chloro-1H-pyrrolo[2,3-b]pyridin-5-yl)-1-((1r,3r)-3-fluorocyclobutyl)-1H-pyrazol-4-yl)pyrimidin-2-ylamino)propan-2-ol], the IC50 was 30.6 nM.
To `COc1cc(-c2n[nH]cc2-c2ccnc(NCC(F)F)n2)cnc1N` [Example B-68, 4-[3-(6-amino-5-methoxypyridin-3-yl)-1H-pyrazol-4-yl]-N-(2,2-difluoroethyl)-pyrimidin-2-amine] belongs 25.6 nM.
For `CC(=O)c1cc(-c2nn(CC(F)F)cc2-c2ccnc(NCCC#N)n2)cnc1N` [Example B-78, 3-(4-(3-(5-acetyl-6-aminopyridin-3-yl)-1-(2,2-difluoroethyl)-1H-pyrazol-4-yl)pyrimidin-2-ylamino)propanenitrile] the value was 8.8 nM; for `CC(C)(CO)n1cc(-c2ccnc(NCCC#N)n2)c(-c2cnc3[nH]cc(Cl)c3c2)n1` [Example E-5, 3-({4-[3-(3-chloro-1H-pyrrolo[2,3-b]pyridin-5-yl)-1-(2-hydroxy-1,1-dimethylethyl)-1H-pyrazol-4-yl]pyrimidin-2-yl}amino)-propanenitrile], 0.836 nM.
To `N#CCCNc1nccc(-c2cn(CC(F)F)nc2-c2cnc3c(c2)CCN3)n1` [Example B-88, 3-(4-(1-(2,2-difluoroethyl)-3-(2,3-dihydro-1H-pyrrolo[2,3-b]pyridin-5-yl)-1H-pyrazol-4-yl)pyrimidin-2-ylamino)propanenitrile] belongs 6.93 nM; to `CC(C)n1cc(-c2ccnc(N)c2)c(-c2cnc3[nH]cc(Cl)c3c2)n1` [Example H-1, 4-(3-(3-chloro-1H-pyrrolo[2,3-b]pyridin-5-yl)-1-isopropyl-1H-pyrazol-4-yl)pyridin-2-amine], 26 nM.
As to `CC(=O)c1cc(-c2nn(C(C)C)cc2-c2ccnc(NCCC#N)n2)cnc1N` [Example B-52, 3-({4-[3-(5-acetyl-6-aminopyridin-3-yl)-1-isopropyl-1H-pyrazol-4-yl]pyrimidin-2-yl}amino)propanenitrile], the IC50 turned out to be 9.3 nM.
For `CC(=O)N1CCC(n2cc(-c3ccnc(NCC(F)F)n3)c(-c3cnc4[nH]cc(Cl)c4c3)n2)CC1` [Example B-67, 4-[1-(1-acetylpiperidin-4-yl)-3-(3-chloro-1H-pyrrolo[2,3-b]pyridin-5-yl)-1H-pyrazol-4-yl]-N-(2,2-difluoroethyl)-pyrimidin-2-amine] the value was 9.2 nM; for `COc1cc(-c2n[nH]cc2-c2ccnc(N)n2)cnc1N` [Example C-2, 4-[3-(6-amino-5-methoxypyridin-3-yl)-1H-pyrazol-4-yl]pyrimidin-2-amine], 1310 nM.
For `Nc1nccc(-c2cn(C3CCNCC3)nc2-c2cnc3[nH]cc(Cl)c3c2)n1` [Example B-63, 4-[3-(3-chloro-1H-pyrrolo[2,3-b]pyridin-5-yl)-1-piperidin-4-yl-1H-pyrazol-4-yl]pyrimidin-2-amine] the value was 43.7 nM; for `C[C@H](O)CNc1nccc(-c2cn(CC(F)F)nc2-c2cnc3[nH]cc(Cl)c3c2)n1` [Example B-96, (2S)-1-({4-[3-(3-chloro-1H-pyrrolo[2,3-b]pyridin-5-yl)-1-(2,2-difluoroethyl)-1H-pyrazol-4-yl]pyrimidin-2-yl}amino)propan-2-ol], 14.1 nM.
For `COc1nc(-c2nn(C(C)C)cc2-c2ccnc(NCCC#N)n2)cnc1N` [Example B-31, 3-({4-[3-(5-amino-6-methoxypyrazin-2-yl)-1-isopropyl-1H-pyrazol-4-yl]pyrimidin-2-yl}amino)propanenitrile] the value was 0.5 nM; for `CC(C)n1cc(-c2ccnc(NC[C@H](C)O)n2)c(-c2cnc(N)c(O)c2)n1` [Example B-45, 2-amino-5-[4-(2-{[(2S)-2-hydroxypropyl]-amino}pyrimidin-4-yl)-1-isopropyl-1H-pyrazol-3-yl]pyridin-3-ol], 319 nM; for `Cc1c[nH]c2ncc(-c3nn(C(F)F)cc3-c3ccnc(N)n3)cc12` [Example B-40, 4-[1-(difluoromethyl)-3-(3-methyl-1H-pyrrolo[2,3-b]pyridin-5-yl)-1H-pyrazol-4-yl]pyrimidin-2-amine], 48.2 nM.
Take `N#CCCNc1nccc(-c2cn(CC(F)F)nc2-c2cnc3cc[nH]c3c2)n1` [Example B-36, 3-({4-[1-(2,2-difluoroethyl)-3-(1H-pyrrolo[3,2-b]pyridin-6-yl)-1H-pyrazol-4-yl]pyrimidin-2-yl}amino)propanenitrile]: the IC50 was found to be 458 nM.
For the molecule `COc1cc(-c2nn(-c3ccc(C#N)cc3)cc2-c2ccnc(NCCO)n2)cnc1N` [Example B-80, 4-[3-(6-amino-5-methoxypyridin-3-yl)-4-{2-[(2-hydroxyethyl)-amino]pyrimidin-4-yl}-1H-pyrazol-1-yl]-benzonitrile], the IC50 turned out to be 95.3 nM.
